In ChEMBL document CHEMBL1165884, “Microwave-assisted synthesis and in-vitro anti-tumor activity of 1,3,4-triaryl-5-N-arylpyrazole-carboxamides” (Eur J Med Chem, 2010):
≈ marks a conversion by molar mass, not a printed value.

Legend:
HEp-2 = assay: Cytotoxicity against human Hep2 cells after 48 hrs; conditions: HEp-2, 48 h
Caco-2 = assay: Cytotoxicity against human Caco-2 cells after 48 hrs; conditions: Caco-2, 48 h

## Cc1ccc(NC(=O)c2c(-c3ccccc3)c(-c3ccccc3)nn2-c2ccccc2)cc1
HEp-2
  IC50: 1.21 µg/mL (≈ 2.82 µM)
Caco-2
  IC50: 2.21 µg/mL (≈ 5.15 µM)

## Cc1ccc(NC(=O)c2c(-c3ccc(Cl)cc3)c(-c3ccccc3)nn2-c2ccccc2)cc1
HEp-2
  IC50: 0.81 µg/mL (≈ 1.75 µM)
Caco-2
  IC50: 1.54 µg/mL (≈ 3.32 µM)

## O=C(c1c(-c2ccc(Cl)cc2)c(-c2ccccc2)nn1-c1ccccc1)n1c(=S)[nH]c2ccccc21
HEp-2
  IC50: 1.54 µg/mL (≈ 3.04 µM)
Caco-2
  IC50: 3.29 µg/mL (≈ 6.49 µM)

## O=C(Nc1ccccc1)c1c(-c2ccccc2)c(-c2ccccc2)nn1-c1ccccc1
HEp-2
  IC50: 1.5 µg/mL (≈ 3.61 µM)
Caco-2
  IC50: 1.68 µg/mL (≈ 4.04 µM)

## O=C(c1c(-c2ccccc2)c(-c2ccccc2)nn1-c1ccccc1)n1c(=S)[nH]c2ccccc21
HEp-2
  IC50: 7.18 µg/mL (≈ 15.2 µM)
Caco-2
  IC50: 1.48 µg/mL (≈ 3.13 µM)

## O=C(Nc1ccccc1)c1c(-c2ccc(Cl)cc2)c(-c2ccccc2)nn1-c1ccccc1
HEp-2
  IC50: 0.74 µg/mL (≈ 1.64 µM)
Caco-2
  IC50: 1.74 µg/mL (≈ 3.87 µM)

## Cc1ccc(NC(=O)c2c(-c3ccccc3)c(-c3ccc(Cl)cc3)nn2-c2ccccc2)cc1
HEp-2
  IC50: 1.21 µg/mL (≈ 2.61 µM)
Caco-2
  IC50: 0.67 µg/mL (≈ 1.44 µM)

## COc1cccc2c1C(=O)c1c(O)c3c(c(O)c1C2=O)C[C@@](O)(C(=O)CO)C[C@@H]3O[C@H]1C[C@H](N)[C@H](O)[C@H](C)O1 [DOXORUBICIN]
HEp-2
  IC50: 0.4 µg/mL (≈ 0.736 µM)
Caco-2
  IC50: 1 µg/mL (≈ 1.84 µM)
